How the values were obtained:
[1] = test system: Plasmodium cynomolgi; assay: Antimalarial activity against schizont stage Plasmodium cynomolgi infected in primary rhesus monkey hepatocytes; type: functional, organism-based
[2] = test system: Plasmodium cynomolgi; assay: Antimalarial activity against hypnozoites stage Plasmodium cynomolgi infected in primary rhesus monkey hepatocytes; type: functional, organism-based
[3] = Inhibition of Plasmodium vivax PI4K
[4] = test system: Plasmodium cynomolgi; assay: Antimalarial activity against hypnozoites stage Plasmodium cynomolgi infected in primary rhesus monkey hepatocytes measured on day 5; type: functional, organism-based; conditions: 120 h
[5] = test system: Plasmodium falciparum; assay: Antimalarial activity against early stage Plasmodium falciparum gametocytes by luciferase reporter gene assay; type: functional, organism-based
[6] = test system: Plasmodium falciparum; assay: Antimalarial activity against late stage Plasmodium falciparum gametocytes by luciferase reporter gene assay; type: functional, organism-based
[7] = test system: Plasmodium falciparum; assay: Antimalarial activity against late stage Plasmodium falciparum gametocytes assessed as reduction in gametogenesis exflagellation after 24 hrs; type: functional, organism-based
[8] = test system: Plasmodium falciparum; assay: Antimalarial activity against stage 5 Plasmodium falciparum assessed as reduction in oocyst formation in mosquito midgut pretreated 24 hrs before feeding by standard membrane-feeding assay; type: functional, organism-based
[9] = test system: Plasmodium falciparum; assay: Antimalarial activity against stage 5 Plasmodium falciparum assessed as reduction in oocyst formation in mosquito midgut at 1 uM after 24 hrs by standard membrane-feeding assay relative to control; type: functional; design: scale not given: the % may be the effect or the level left
[10] = test system: Plasmodium berghei; assay: Antimalarial activity against Plasmodium berghei infected in mouse assessed reduction in parasitemia; type: functional; design: scale not given: the % may be the effect or the level left
[11] = test system: Plasmodium falciparum; assay: Antimalarial activity Plasmodium falciparum infected in po dosed SCID mouse assessed as reduction in parasite growth administered daily for 4 consecutive days and measured on day 7 by flow cytometric analysis; type: functional; conditions: 168 h
[12] = Plasma clearance in dog; type: ADME, Canis lupus familiaris
[13] = Plasma clearance in mouse; type: ADME, organism-based
[14] = Plasma clearance in rat; type: ADME
[15] = Volume of distribution in dog; type: ADME, Canis lupus familiaris; conditions: in vivo
[16] = Volume of distribution in mouse; type: ADME, organism-based; conditions: in vivo
[17] = Volume of distribution in rat; type: ADME; conditions: in vivo
[18] = Half life in dog; type: ADME, Canis lupus familiaris; conditions: in vivo
[19] = Half life in monkey; type: ADME, Macaca mulatta; conditions: rhesus monkey, in vivo
[20] = Half life in mouse; type: ADME, organism-based; conditions: in vivo
[21] = Half life in rat; type: ADME; conditions: in vivo
[22] = Oral bioavailability in dog; type: ADME, organism-based, Canis lupus familiaris; conditions: in vivo
[23] = Oral bioavailability in monkey; type: ADME, organism-based, Macaca mulatta; conditions: rhesus monkey, in vivo
[24] = Plasma clearance in human at 80 to 100 mg; type: ADME
[25] = Volume of distribution in human at 80 to 100 mg; type: ADME
[26] = Half life in human at 80 to 100 mg; type: ADME
[27] = target: Sodium channel protein type 5 subunit alpha (Homo sapiens, UniProt Q14524); assay: Inhibition of Nav1.5 (unknown origin)
[28] = target: Voltage-dependent L-type calcium channel subunit alpha-1C (Homo sapiens, UniProt Q13936); assay: Inhibition of Cav1.2 (unknown origin)
[29] = AUC (0 to infinity) in human at 5 to 120 mg,po; type: ADME; conditions: in vivo
[30] = Half life in human at 5 to 120 mg,po; type: ADME; conditions: in vivo
[31] = AUC in human at 5 to 120 mg,po in fed condition; type: ADME; conditions: in vivo
[32] = AUC in human at 5 to 120 mg,po in fast condition; type: ADME; conditions: in vivo
[33] = Half life in human at 5 to 120 mg,po in fed condition; type: ADME; conditions: in vivo
[34] = Half life in human at 5 to 120 mg,po in fast condition; type: ADME; conditions: in vivo
[35] = test system: Plasmodium falciparum; assay: Ex-vivo antimalarial activity against Plasmodium falciparum serum derived from 40 mg, po treated human after 144 hrs; type: functional, organism-based

Sodium channel protein type 5 subunit alpha, sequence (Q14524 whole entry): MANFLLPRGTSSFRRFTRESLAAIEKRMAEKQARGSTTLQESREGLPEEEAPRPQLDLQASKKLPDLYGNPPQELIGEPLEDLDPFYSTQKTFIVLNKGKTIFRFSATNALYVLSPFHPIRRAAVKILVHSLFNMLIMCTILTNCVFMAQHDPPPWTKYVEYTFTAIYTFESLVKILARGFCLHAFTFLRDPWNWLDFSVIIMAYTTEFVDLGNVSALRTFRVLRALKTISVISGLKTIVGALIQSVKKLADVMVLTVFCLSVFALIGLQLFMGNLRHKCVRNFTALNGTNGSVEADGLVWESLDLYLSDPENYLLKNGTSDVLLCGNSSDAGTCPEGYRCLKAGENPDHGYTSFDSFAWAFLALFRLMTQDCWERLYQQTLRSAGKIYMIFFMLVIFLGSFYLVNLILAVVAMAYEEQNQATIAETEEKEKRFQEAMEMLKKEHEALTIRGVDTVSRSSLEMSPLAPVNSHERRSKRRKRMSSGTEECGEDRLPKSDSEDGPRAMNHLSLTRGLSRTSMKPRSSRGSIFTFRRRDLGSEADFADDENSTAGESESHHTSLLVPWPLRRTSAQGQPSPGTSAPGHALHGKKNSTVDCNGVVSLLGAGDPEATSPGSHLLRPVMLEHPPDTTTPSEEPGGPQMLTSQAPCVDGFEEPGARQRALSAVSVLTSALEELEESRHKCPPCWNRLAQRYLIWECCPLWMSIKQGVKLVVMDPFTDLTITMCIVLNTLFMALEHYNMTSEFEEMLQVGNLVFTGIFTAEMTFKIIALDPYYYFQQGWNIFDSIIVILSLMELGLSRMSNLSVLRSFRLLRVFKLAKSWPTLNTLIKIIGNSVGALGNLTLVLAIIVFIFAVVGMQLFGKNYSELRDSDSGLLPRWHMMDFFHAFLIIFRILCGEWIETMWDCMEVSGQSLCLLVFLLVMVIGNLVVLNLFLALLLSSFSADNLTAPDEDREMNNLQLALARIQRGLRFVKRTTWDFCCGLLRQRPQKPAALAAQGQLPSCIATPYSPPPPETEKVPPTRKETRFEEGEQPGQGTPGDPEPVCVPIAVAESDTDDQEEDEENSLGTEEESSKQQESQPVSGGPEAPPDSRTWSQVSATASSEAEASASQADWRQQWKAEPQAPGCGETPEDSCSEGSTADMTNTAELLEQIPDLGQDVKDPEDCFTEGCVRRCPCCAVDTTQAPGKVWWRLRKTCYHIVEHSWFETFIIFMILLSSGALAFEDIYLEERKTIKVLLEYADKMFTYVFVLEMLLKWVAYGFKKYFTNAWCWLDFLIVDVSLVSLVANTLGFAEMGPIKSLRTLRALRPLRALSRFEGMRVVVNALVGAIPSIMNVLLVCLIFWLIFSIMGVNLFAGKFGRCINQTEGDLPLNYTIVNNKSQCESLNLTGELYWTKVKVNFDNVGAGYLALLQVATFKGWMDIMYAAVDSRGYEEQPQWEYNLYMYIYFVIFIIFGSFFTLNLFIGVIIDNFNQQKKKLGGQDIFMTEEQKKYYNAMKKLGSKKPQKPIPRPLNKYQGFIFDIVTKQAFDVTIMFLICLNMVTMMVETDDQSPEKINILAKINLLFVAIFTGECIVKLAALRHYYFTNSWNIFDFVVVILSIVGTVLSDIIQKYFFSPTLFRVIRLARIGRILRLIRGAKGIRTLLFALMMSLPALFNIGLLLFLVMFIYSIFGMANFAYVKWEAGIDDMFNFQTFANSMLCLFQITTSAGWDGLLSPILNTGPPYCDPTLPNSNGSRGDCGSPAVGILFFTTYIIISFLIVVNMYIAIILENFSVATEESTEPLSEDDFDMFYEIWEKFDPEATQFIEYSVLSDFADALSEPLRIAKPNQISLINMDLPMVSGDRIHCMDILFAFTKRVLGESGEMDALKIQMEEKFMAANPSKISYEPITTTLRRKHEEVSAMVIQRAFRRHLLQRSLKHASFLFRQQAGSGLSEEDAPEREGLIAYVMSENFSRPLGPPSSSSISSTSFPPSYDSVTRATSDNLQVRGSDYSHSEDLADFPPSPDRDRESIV
Voltage-dependent L-type calcium channel subunit alpha-1C, sequence (Q13936 whole entry): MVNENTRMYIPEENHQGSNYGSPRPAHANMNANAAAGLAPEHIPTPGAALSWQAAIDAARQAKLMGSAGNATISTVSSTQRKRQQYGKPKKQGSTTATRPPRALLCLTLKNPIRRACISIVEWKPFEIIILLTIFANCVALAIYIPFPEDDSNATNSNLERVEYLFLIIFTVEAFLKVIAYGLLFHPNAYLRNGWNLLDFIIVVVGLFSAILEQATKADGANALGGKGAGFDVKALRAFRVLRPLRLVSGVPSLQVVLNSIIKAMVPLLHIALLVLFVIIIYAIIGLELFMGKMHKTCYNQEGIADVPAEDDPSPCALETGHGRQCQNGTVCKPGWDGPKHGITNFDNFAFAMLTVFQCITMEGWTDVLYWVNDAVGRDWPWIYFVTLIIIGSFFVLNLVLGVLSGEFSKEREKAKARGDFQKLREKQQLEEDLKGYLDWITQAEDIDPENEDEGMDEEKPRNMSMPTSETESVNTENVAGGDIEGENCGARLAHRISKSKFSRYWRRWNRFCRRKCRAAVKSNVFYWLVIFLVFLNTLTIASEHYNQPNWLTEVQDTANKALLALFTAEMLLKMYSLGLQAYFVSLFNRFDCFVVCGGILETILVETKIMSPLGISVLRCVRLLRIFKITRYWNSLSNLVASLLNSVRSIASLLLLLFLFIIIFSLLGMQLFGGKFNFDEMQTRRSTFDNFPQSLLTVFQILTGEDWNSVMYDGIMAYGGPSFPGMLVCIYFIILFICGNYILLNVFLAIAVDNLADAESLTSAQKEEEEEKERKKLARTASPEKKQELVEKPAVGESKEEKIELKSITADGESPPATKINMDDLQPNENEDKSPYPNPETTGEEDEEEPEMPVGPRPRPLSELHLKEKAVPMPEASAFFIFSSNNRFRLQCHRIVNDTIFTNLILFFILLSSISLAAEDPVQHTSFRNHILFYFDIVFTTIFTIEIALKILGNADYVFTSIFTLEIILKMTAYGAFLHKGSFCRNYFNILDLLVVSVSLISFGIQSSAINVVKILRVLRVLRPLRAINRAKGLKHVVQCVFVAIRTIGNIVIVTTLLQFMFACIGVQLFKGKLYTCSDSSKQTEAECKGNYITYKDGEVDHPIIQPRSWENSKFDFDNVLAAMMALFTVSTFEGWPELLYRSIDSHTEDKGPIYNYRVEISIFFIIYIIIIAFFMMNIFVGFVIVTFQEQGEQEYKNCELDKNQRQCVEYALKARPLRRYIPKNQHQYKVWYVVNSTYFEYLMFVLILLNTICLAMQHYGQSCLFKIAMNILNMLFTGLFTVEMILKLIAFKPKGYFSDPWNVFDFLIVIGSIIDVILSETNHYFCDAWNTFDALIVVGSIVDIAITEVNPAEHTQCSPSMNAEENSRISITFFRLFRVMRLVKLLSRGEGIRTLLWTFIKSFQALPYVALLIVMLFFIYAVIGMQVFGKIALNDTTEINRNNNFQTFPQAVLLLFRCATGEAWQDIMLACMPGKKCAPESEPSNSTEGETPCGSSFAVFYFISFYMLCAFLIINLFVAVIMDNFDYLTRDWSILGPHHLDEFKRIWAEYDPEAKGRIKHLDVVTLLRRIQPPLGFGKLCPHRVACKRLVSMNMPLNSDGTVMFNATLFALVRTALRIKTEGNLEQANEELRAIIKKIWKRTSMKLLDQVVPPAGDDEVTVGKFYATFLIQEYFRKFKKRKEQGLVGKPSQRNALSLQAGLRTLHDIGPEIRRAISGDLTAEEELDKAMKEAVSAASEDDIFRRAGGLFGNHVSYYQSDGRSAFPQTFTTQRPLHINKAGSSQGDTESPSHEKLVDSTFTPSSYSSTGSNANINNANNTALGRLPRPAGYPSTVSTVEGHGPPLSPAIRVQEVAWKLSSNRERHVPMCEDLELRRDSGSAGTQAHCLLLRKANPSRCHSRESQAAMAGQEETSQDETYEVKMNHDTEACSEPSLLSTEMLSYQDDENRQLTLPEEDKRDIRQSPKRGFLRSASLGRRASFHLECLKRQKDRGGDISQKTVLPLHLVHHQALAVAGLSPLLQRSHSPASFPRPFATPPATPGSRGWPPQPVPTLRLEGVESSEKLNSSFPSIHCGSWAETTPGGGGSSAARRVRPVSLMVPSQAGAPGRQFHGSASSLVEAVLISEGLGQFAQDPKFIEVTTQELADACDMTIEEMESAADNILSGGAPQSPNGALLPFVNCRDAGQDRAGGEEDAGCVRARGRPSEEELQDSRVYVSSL

CS(=O)(=O)c1ccc(-c2cnc(N)c(-c3ccc(C(F)(F)F)nc3)c2)cc1 [MMV-048]
EC50 [1]: 64 nM | EC50 [2]: 61 nM | IC50 [3]: 3.4 nM | EC50 [4]: > 10000 nM | EC50 [5]: 214 nM | EC50 [6]: 140 nM | EC50 [7]: 90 nM | EC50 [8]: 111 nM | Activity [9]: >25% | Activity [10]: 98 - 99.5% | ED90 [11]: 0.57 mg/kg | ED99 [11]: 1.1 mg/kg | clearance [12]: 0.6 mL/min/kg | clearance [13]: 3 mL/min/kg | clearance [14]: 6.5 mL/min/kg | Vd [15]: 1.3 to 3 L/kg | Vd [16]: 1.3 to 3 L/kg | Vd [17]: 1.3 to 3 L/kg | half-life [18]: 58 h | half-life [19]: 56 h | half-life [20]: 5.6 h | half-life [21]: 9.2 h | bioavailability [22]: 45% | bioavailability [23]: 74% | clearance [24]: 0.333 mL/min | Vd [25]: 2.8 L/kg | half-life [26]: 90 h | IC50 [27]: > 10000 nM | IC50 [28]: > 10000 nM | AUC(0-inf) [29]: 2140 to 156000 ng·h/mL | half-life [30]: 163 to 252 h | AUC [31]: 29000 ng·h/mL | AUC [32]: 21000 ng·h/mL | half-life [33]: 210 h | half-life [34]: 193 h | EC50 [35]: 24 nM
